According to patent US8148391B2 (Cephalon, Inc., priority 2006, dated 2012):
Read-outs that look alike come from different tables or passages of the source.

What was measured:
[1] = target: T1, baculovirus-expressed ALK (Homo sapiens, UniProt Q9UM73); experiment: ALK Kinase Assay (ELISA-type, time-resolved fluorescence); format: biochemical
T1 construct: host or cells: baculovirus expression system
How it was run: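 Wells were coated with phospholipase C-γ at 10 μg/mL in Tris-buffered saline. Adding 30 ng/ml enzyme started the reaction, which ran at 37° C for 15 minutes before Eu-N1 PT66 antibody detection. Percent inhibition versus log10 concentration gave IC50 by variable-slope fit.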

[2] = target: T2, c-Met (cytoplasmic domain) (Homo sapiens, UniProt P08581); experiment: c-Met Kinase Assay (same methods as for ALK, with modifications); format: biochemical
T2 construct: 10 ng/mL c-Met (cytoplasmic domain, Invitrogen Corporation #PV3143); purchased Invitrogen Corporation PV3143
T2 sequence (P08581 956-1390 limits assumed): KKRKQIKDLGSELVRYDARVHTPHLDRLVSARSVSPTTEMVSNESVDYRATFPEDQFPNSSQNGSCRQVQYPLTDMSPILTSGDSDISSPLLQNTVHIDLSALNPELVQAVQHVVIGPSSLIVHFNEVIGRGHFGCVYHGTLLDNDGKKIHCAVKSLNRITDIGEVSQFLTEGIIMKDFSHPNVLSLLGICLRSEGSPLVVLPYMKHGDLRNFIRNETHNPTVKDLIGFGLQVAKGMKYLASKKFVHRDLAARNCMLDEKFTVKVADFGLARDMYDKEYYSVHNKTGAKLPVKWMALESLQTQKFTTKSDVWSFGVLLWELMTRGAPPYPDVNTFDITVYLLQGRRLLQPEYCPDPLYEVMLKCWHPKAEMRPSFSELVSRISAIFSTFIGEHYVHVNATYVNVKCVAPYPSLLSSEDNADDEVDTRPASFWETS
How it was run: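 Steps: coat wells with PLC-γ (10 μg/mL, Tris-buffered saline); add 10 ng/mL c-Met cytoplasmic domain to initiate; incubate 15 min, 37° C; detect phosphoproduct via Eu-N1 PT66 antibody.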

[3] = ALK kinase inhibition, 1 μM ATP, read-out: ALK Activity
[4] = c-Met kinase inhibition, 1 μM ATP, read-out: cMet Activity
[5] = ALK kinase inhibition, 1 μM ATP (Km level), read-out: ALK Activity
[6] = c-Met kinase inhibition, 1 μM ATP (Km level), read-out: cMet Activity
[7] = 1 μM ATP (Km level), read-out: ALK Activity (ALK Kinase Inhibition, IC50)
[8] = 1 μM ATP (Km level), read-out: cMet Activity (c-Met Kinase Inhibition, IC50)

T1 sequence (Q9UM73 19-1620): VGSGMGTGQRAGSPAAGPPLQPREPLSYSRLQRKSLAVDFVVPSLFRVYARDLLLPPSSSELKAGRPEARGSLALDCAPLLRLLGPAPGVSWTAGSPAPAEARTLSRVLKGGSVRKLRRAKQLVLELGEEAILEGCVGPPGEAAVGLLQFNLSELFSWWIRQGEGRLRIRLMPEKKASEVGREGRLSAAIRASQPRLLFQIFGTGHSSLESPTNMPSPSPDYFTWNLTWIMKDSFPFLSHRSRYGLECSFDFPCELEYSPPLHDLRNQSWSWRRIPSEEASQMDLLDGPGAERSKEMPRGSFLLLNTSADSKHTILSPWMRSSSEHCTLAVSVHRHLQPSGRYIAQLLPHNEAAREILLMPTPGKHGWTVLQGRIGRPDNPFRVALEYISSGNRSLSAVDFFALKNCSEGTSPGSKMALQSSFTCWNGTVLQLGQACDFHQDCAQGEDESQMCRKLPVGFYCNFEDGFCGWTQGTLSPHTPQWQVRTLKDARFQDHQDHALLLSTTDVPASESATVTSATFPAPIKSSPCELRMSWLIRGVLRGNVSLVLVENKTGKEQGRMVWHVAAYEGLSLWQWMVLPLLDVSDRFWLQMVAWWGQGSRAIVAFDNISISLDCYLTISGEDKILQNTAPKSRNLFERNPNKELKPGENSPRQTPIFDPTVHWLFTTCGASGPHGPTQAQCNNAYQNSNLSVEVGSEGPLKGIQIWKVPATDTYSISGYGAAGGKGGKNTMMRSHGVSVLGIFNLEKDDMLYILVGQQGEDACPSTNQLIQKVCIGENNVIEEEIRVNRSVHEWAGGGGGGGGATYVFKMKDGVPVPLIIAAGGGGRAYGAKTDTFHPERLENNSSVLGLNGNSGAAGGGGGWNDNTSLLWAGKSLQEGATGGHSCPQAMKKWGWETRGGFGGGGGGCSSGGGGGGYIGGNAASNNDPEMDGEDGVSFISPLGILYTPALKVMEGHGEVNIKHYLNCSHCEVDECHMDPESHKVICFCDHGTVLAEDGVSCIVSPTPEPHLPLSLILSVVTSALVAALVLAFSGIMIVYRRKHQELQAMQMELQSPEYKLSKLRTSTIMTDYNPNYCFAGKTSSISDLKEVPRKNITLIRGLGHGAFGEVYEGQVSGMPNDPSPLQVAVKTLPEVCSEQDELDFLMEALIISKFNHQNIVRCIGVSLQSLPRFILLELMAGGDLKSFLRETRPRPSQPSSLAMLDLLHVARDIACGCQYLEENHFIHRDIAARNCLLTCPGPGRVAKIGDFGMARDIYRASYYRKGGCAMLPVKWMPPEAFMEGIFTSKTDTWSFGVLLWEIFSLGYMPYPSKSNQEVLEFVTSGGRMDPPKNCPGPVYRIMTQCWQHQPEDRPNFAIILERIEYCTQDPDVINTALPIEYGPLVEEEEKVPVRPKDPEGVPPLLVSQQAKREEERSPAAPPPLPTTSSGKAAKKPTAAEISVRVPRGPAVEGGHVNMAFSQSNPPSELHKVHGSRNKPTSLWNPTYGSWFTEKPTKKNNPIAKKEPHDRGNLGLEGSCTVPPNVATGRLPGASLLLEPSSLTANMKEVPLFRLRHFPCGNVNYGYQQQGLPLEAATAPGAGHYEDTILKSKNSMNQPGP

Molecule: CNC(=O)c1ccccc1Nc1nc(Nc2ccc3c(c2)CCC(=O)NC3(C)C)ncc1Cl [Example 1827, 2-(5-Chloro-2-(1,1-dimethyl-3-oxo-2,3,4,5-tetrahydro-1H-benzo[c]azepin-7-ylamino)pyrimidin-4-ylamino)-N-methylbenzamide]
- IC50 [1, 3]: < 100 nM
- IC50 [2, 4]: < 100 nM

Molecule: CNC(=O)c1sccc1Nc1nc(Nc2ccc3c(c2)N(C(C)=O)CCCO3)ncc1Cl [Example 1702, 3-[2-(9-Acetyl-6,7,8,9-tetrahydro-5-oxa-9-aza-benzocyclohepten-2-ylamino)-5-chloro-pyrimidin-4-ylamino]-thiophene-2-carboxylic acid methylamide]
- IC50 [1, 3]: 1000 to 10000 nM
- IC50 ([2]; cMet Activity, c-Met kinase inhibition, 1 μM ATP): < 100 nM

Molecule: 2-[5-Chloro-2-(3-methyl-4-oxo-2,3,4,5-tetrahydro-1H-benzo[d]azepin-7-ylamino)-pyrimidin-4-ylamino]-3,5,N-trimethyl-benzamide [Example 1818]
- IC50 [1, 3]: 1000 to 10000 nM
- IC50 [2, 4]: 100 to 1000 nM

Molecule: CNC(=O)c1cccc(OC)c1Nc1nc(Nc2ccc3c(c2)CCN(CCOC)CC3)ncc1Cl [Example 315, 2-{5-Chloro-2-[3-(2-methoxy-ethyl)-2,3,4,5-tetrahydro-1H-benzo[d]azepin-7-ylamino]-pyrimidin-4-ylamino}-3-methoxy-N-methyl-benzamide]
- IC50 [1, 5]: 100 to 1000 nM
- IC50 [2, 6]: 100 to 1000 nM

Molecule: CC(C)N1C2CCC1c1cc(Nc3ncc(Cl)c(N[C@@H]4CCCC[C@H]4NS(C)(=O)=O)n3)ccc1C2 (stereo partly drawn) [Example 83, N-{(1R,2R)-2-[5-Chloro-2-(12-isopropyl-12-aza-tricyclo[7.2.1.0*2,7*]dodeca-2(7),3,5-trien-4-ylamino)-pyrimidin-4-ylamino]-cyclohexyl}-methanesulfonamide]
- IC50 [1, 5]: < 100 nM
- IC50 [2, 6]: 100 to 1000 nM

Molecule: CCN1C(=O)C(NC(=O)CN(C)C)CCc2ccc(Nc3ncc(Cl)c(Nc4c(F)cccc4C(=O)NC)n3)cc21 (stereo not drawn) [Example 1496, 2-{5-Chloro-2-[3-(2-dimethylamino-acetylamino)-1-ethyl-2-oxo-2,3,4,5-tetrahydro-1H-benzo[b]azepin-8-ylamino]-pyrimidin-4-ylamino}-3-fluoro-N-methyl-benzamide]
- IC50 [1, 3]: 100 to 1000 nM
- IC50 [2, 4]: < 100 nM

Molecule: CCN1C(=O)[C@H](NC(=O)C2CC2)CCc2c1ccc(Nc1ncc(Cl)c(N[C@H]3[C@@H](C(N)=O)[C@@H]4C=C[C@H]3C4)n1)c2OC (single isomer, unassigned) [Example 1357]
- IC50 ([1]; 1 μM ATP (Km level), 30 ng/ml ALK, 37° C., 15 minutes, read-out: ALK Activity (ALK kinase inhibition, IC50 class)): < 100 nM
- IC50 ([2]; 1 μM ATP (Km level), 10 ng/mL c-Met, read-out: cMet Activity (c-Met kinase inhibition, IC50 class)): > 10000 nM

Molecule: CCOC(=O)N1CC(=O)N(CC)c2cc(Nc3ncc(Cl)c(Nc4c(F)cccc4C(=O)NC)n3)ccc2C1 [Example 1875, 8-[5-Chloro-4-(2-fluoro-6-methylcarbamoyl-phenylamino)-pyrimidin-2-ylamino]-1-ethyl-2-oxo-1,2,3,5-tetrahydro-benzo[e][1,4]diazepine-4-carboxylic acid ethyl ester]
- IC50 [1, 5]: 1000 to 10000 nM
- IC50 [2, 6]: < 100 nM

Molecule: CNC(=O)c1cccc(C)c1Nc1nc(Nc2ccc3c(c2)N(CCOC)C(=O)CCC3)ncc1Cl [Example 361, 2-{5-Chloro-2-[1-(2-methoxy-ethyl)-2-oxo-2,3,4,5-tetrahydro-1H-benzo[b]azepin-8-ylamino]-pyrimidin-4-ylamino}-3,N-dimethyl-benzamide]
- IC50 [1, 5]: 1000 to 10000 nM
- IC50 [2, 6]: < 100 nM

Molecule: COCCN(C)C1CCc2ccc(Nc3ncc(Cl)c(N[C@H]4[C@@H](C(N)=O)[C@@H]5C=C[C@H]4C5)n3)c(OC)c2CC1 (single isomer, unassigned) [Example 701]
- IC50 [1, 7]: < 100 nM
- IC50 [2, 8]: > 10000 nM

Molecule: CNC(=O)c1ccccc1Nc1nc(Nc2cccc3c2N(C)CCNC3=O)ncc1Cl [Example 544, 2-[5-Chloro-2-(1-methyl-5-oxo-2,3,4,5-tetrahydro-1H-benzo[e][1,4]diazepin-9-ylamino)pyrimidin-4-ylamino]-N-methyl-benzamide]
- IC50 [1, 7]: < 100 nM
- IC50 [2, 8]: > 10000 nM

Molecule: CNC(=O)c1ccccc1Nc1nc(Nc2ccc3c(c2)N(C)CCNC3=O)ncc1Cl [Example 414, 2-[5-Chloro-2-(1-methyl-5-oxo-2,3,4,5-tetrahydro-1H-benzo[e][1,4]diazepin-8-ylamino)-pyrimidin-4-ylamino]-N-methylbenzamide]
- IC50 [1, 5]: < 100 nM
- IC50 [2, 6]: < 100 nM
